In patent publication US20170142972A1, “ANTIMICROBIAL COMPOSITION INHIBITS BACTERIA AND FUNGI” (Troy Corporation, priority 2017, published 2017):

System: Pseudomonas aeruginosa (ATCC #10145), Escherichia coli (ATCC #11229), Enterobacter aerogenes (ATCC #13048), and Alcaligenes faecalis (ATCC #25094)
Assay: Challenge Method for Quantifying Antibacterial Effectiveness (two 7-day cycles, mixed bacterial inoculum)
Format: cell-based
Conditions: agent alone
Experimental: In order to quantify the relative antibacterial effectiveness of an antimicrobial composition, samples are prepared by adding various amounts of the antimicrobial composition to identical volumes of a sterile test material. […] Each of the samples is subjected to a two-part challenge procedure and the sample that provides acceptable anti-bacterial protection with the lowest concentration of the antimicrobial composition is identified. Each part of the anti-bacterial challenge consists of a 7-day test cycle. The parts are performed consecutively over 14 test days. […] Challenge testing is accomplished using a mixed bacterial inoculum as the contamination event. These bacteria are Pseudomonas aeruginosa (ATCC #10145), Escherichia coli (ATCC #11229), Enterobacter aerogenes (ATCC #13048), and Alcaligenes faecalis (ATCC #25094). To make the test inoculum, each type of bacteria is grown separately in nutrient broth. Just before use in the challenge test, equal volumes of the four types of bacteria are blended together to make a mixed inoculum. After incubation, both control blanks and samples containing preservative are inoculated with the mixed inoculum. […] Performance ratings of 0, 1, 2, 3 or 4 for each test sample are determined by visual inspection according to the definitions set forth below in Table 1.

## O=c1[nH]sc2ccccc12 [BIT, benzisothiazolinone]
adhesive
  concentration alone required to provide the required protection against bacterial growth on Test Day 14: at least 0.013%
paint
  concentration alone required to provide the required protection against bacterial growth on Test Day 14: at least 0.004%
